Experimental data published in PubChem BioAssay AID248 (DTP/NCI, 2004).
“And” between values parts separate entries of the source, which are not always exact repeats. Identical values can stand only once. Toxic doses and inconclusive results are not listed. Rule as the data show it: active = T/C of 150% or more; inactive = T/C below 125%.

Tested on: L1210 leukemia ip in BDF1 mice, survival T/C
Assay: NCI In Vivo Anticancer Drug Screen. Data for tumor model L1210 Leukemia (intraperitoneal) in B6D2F1 (BDF1) mice
Conditions: endpoint: mean survival time, higher = longer survival
Summary of the method: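 Value reflects the ratio of survival in compound-treated mice to survival in vehicle-treated controls, with both groups carrying the same transplanted tumor.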

[1] = dose: 100.0 mg/kg/injection, schedule: Q01DX009 (ip), vehicle: Klucel (hydroxypropylcellulose) (HPC)
[2] = dose: 100.0 mg/kg/injection, schedule: Q04DX003 (ip), vehicle: Klucel (hydroxypropylcellulose) (HPC)
[3] = dose: 200.0 mg/kg/injection, schedule: Q01DX009 (ip), vehicle: Klucel (hydroxypropylcellulose) (HPC)
[4] = dose: 200.0 mg/kg/injection, schedule: Q04DX003 (ip), vehicle: Klucel (hydroxypropylcellulose) (HPC)
[5] = dose: 400.0 mg/kg/injection, schedule: Q01DX009 (ip), vehicle: Klucel (hydroxypropylcellulose) (HPC)
[6] = dose: 400.0 mg/kg/injection, schedule: Q04DX003 (ip), vehicle: Klucel (hydroxypropylcellulose) (HPC)
[7] = dose: 100.0 mg/kg/injection, schedule: Q01DX001 (ip), vehicle: carboxymethylcellulose (CMC)
[8] = dose: 100.0 mg/kg/injection, schedule: Q01DX009 (ip), vehicle: saline with Tween-80
[9] = dose: 200.0 mg/kg/injection, schedule: Q01DX001 (ip), vehicle: carboxymethylcellulose (CMC)
[10] = dose: 400.0 mg/kg/injection, schedule: Q01DX001 (ip), vehicle: carboxymethylcellulose (CMC)
[11] = dose: 100.0 mg/kg/injection, schedule: Q01DX001 (ip), vehicle: saline
[12] = dose: 200.0 mg/kg/injection, schedule: Q01DX001 (ip), vehicle: saline
[13] = dose: 400.0 mg/kg/injection, schedule: Q01DX001 (ip), vehicle: saline
[14] = dose: 50.0 mg/kg/injection, schedule: Q04DX002 (ip), vehicle: Klucel (hydroxypropylcellulose) (HPC)
[15] = dose: 100.0 mg/kg/injection, schedule: Q04DX002 (ip), vehicle: Klucel (hydroxypropylcellulose) (HPC)
[16] = dose: 100.0 mg/kg/injection, schedule: Q04DX003 (ip), vehicle: saline

Measured: T/C

Cc1cc(=O)c(O)co1
inactive: [1] 98 % of control | [2] 101 % of control | [3] 93 % of control | [4] 101 % of control | [5] 93 % of control | [6] 101 % of control

C=CC1CN2CCC1CC2C(O)c1ccnc2ccccc12 (stereo not drawn) (tested in a mixture with another compound)
inactive: dose: 25.0 mg/kg/injection, schedule: Q01DX009 (ip), vehicle: saline with Tween-80 101 % of control | dose: 50.0 mg/kg/injection, schedule: Q01DX009 (ip), vehicle: saline with Tween-80 98 % of control | [7] 91 % of control | [8] 93 % of control | [9] 98 % of control | [10] 93 % of control

COc1ccccc1CN1CCCN(Cc2ccccc2OC)C1c1ccccc1O
inactive: dose: 50.0 mg/kg/injection, schedule: Q01DX001 (ip), vehicle: saline 101 % of control | [11] 103 % of control | [12] 101 % of control | [13] 97 % of control

O=c1c2ccccc2c2ccccc2n1-c1ccccc1
inactive: dose: 100.0 mg/kg/injection, schedule: Q01DX001 (ip), vehicle: Klucel (hydroxypropylcellulose) (HPC) 97 % of control | dose: 200.0 mg/kg/injection, schedule: Q01DX001 (ip), vehicle: Klucel (hydroxypropylcellulose) (HPC) 94 % of control | dose: 400.0 mg/kg/injection, schedule: Q01DX001 (ip), vehicle: Klucel (hydroxypropylcellulose) (HPC) 91 % of control

COC(=O)c1cc(C(=O)OC)c(C(=O)OC)cc1C(=O)OC
inactive: [8] 101 % of control | dose: 200.0 mg/kg/injection, schedule: Q01DX009 (ip), vehicle: saline with Tween-80 98 % of control | dose: 400.0 mg/kg/injection, schedule: Q01DX009 (ip), vehicle: saline with Tween-80 98 % of control

C=CCOCC(C)OC(=O)C(C)C (stereo not drawn)
inactive: [11] 107 % of control | [12] 94 % of control | [13] 90 % of control

CCCC(CCC)NCC(C)O (stereo not drawn)
inactive: dose: 75.0 mg/kg/injection, schedule: Q01DX001 (ip), vehicle: acid diluted with saline 104 % of control

COc1ccc(OC)c([N+](=O)[O-])c1
inactive: [11] 100 % of control | [1] 100 % of control | [2] 93 % of control | [12] 105 % of control | [3] 94 % of control | [4] 95 % of control | [13] 96 % of control | [5] 88 % of control | [6] 93 % of control

CCCNC(=O)Nc1ccc(Cl)c(Cl)c1
inactive: [11] 100 % of control | [12] 93 % of control | [13] 92 % of control

[N-]=[N+]=NCCCCCCCCCCN=[N+]=[N-]
inactive: dose: 75.0 mg/kg/injection, schedule: Q04DX003 (ip), vehicle: saline 102 % of control | dose: 150.0 mg/kg/injection, schedule: Q04DX003 (ip), vehicle: saline 101 % of control | dose: 300.0 mg/kg/injection, schedule: Q04DX003 (ip), vehicle: saline 91 % of control

O=C(NNS(=O)(=O)c1ccccc1)C1Oc2ccccc2O1
inactive: dose: 25.0 mg/kg/injection, schedule: Q04DX002 (ip), vehicle: Klucel (hydroxypropylcellulose) (HPC) 96 % of control | [14] 93 % of control | [15] 101 % of control

CCOC(=O)C(C#N)C(C(C)=O)C(=O)OCC (stereo not drawn)
inactive: dose: 25.0 mg/kg/injection, schedule: Q01DX009 (ip), vehicle: saline sonified 120 % of control | dose: 50.0 mg/kg/injection, schedule: Q01DX009 (ip), vehicle: saline sonified 124 % of control | dose: 75.0 mg/kg/injection, schedule: Q01DX001 (ip), vehicle: other 94 % of control | dose: 100.0 mg/kg/injection, schedule: Q01DX009 (ip), vehicle: saline sonified 104 % of control | dose: 100.0 mg/kg/injection, schedule: Q04DX003 (ip), vehicle: saline sonified 110 % of control | dose: 150.0 mg/kg/injection, schedule: Q01DX001 (ip), vehicle: other 102 % of control | dose: 300.0 mg/kg/injection, schedule: Q01DX001 (ip), vehicle: other 100 % of control

O=C(O)C1(O)c2cc(Br)ccc2-c2ccc(Br)cc21
inactive: dose: 50.0 mg/kg/injection, schedule: Q01DX001 (ip), vehicle: carboxymethylcellulose (CMC) 100 % of control | [7] 97 % of control | [9] 100 % of control | [10] 92 % of control

C/C(=N/NC(=O)c1ccccc1)c1ccc(Cl)cc1Cl
inactive: dose: 100.0 mg/kg/injection, schedule: Q04DX003 (ip), vehicle: other 97 % of control | dose: 200.0 mg/kg/injection, schedule: Q04DX003 (ip), vehicle: other 108 % of control

CN(C)CCC(c1ccccc1)c1nc(N)nc(C(CCN(C)C)c2ccccc2)n1 (stereo not drawn)
inactive: [14] 102 % of control | [1] 115 % of control | [15] 105 % of control

CC(Cc1ccccc1)N1C(=O)C=CC1=O (stereo not drawn)
inactive: dose: 3.12 mg/kg/injection, schedule: Q01DX009 (ip), vehicle: Klucel (hydroxypropylcellulose) (HPC) 92 % of control | dose: 6.25 mg/kg/injection, schedule: Q01DX009 (ip), vehicle: Klucel (hydroxypropylcellulose) (HPC) 101 % of control | dose: 12.5 mg/kg/injection, schedule: Q01DX009 (ip), vehicle: Klucel (hydroxypropylcellulose) (HPC) 93 % of control and 90 % of control

CCCCCC[Se]CCCCCC
inactive: dose: 12.5 mg/kg/injection, schedule: Q01DX009 (ip), vehicle: saline 98 % of control | dose: 25.0 mg/kg/injection, schedule: Q01DX009 (ip), vehicle: saline 96 % of control | dose: 25.0 mg/kg/injection, schedule: Q04DX003 (ip), vehicle: saline 101 % of control | dose: 50.0 mg/kg/injection, schedule: Q01DX009 (ip), vehicle: saline 93 % of control and 102 % of control | dose: 50.0 mg/kg/injection, schedule: Q04DX003 (ip), vehicle: saline 97 % of control | [16] 98 % of control and 100 % of control

O=NN(CS(=O)(=O)O)c1ccccc1
inactive: [16] 98 % of control | dose: 200.0 mg/kg/injection, schedule: Q04DX003 (ip), vehicle: saline 103 % of control

CCC[CH2][Sn]([I])([CH2]I)[CH2]CCC
inactive: dose: 6.25 mg/kg/injection, schedule: Q04DX002 (ip), vehicle: saline with Tween-80 112 % of control | dose: 12.5 mg/kg/injection, schedule: Q04DX002 (ip), vehicle: saline with Tween-80 112 % of control

Cc1ccc(S(=O)(=O)OCCCl)cc1
inactive: dose: 100.0 mg/kg/injection, schedule: Q04DX002 (ip), vehicle: saline with Tween-80 98 % of control | dose: 200.0 mg/kg/injection, schedule: Q04DX002 (ip), vehicle: saline with Tween-80 109 % of control

CN1CN(c2ccccc2)CSC1=S
inactive: dose: 50.0 mg/kg/injection, schedule: Q01DX009 (ip), vehicle: Klucel (hydroxypropylcellulose) (HPC) 102 % of control | [1] 107 % of control | [2] 94 % of control | [3] 95 % of control | [4] 89 % of control

O=C(c1ccccc1)c1cc(CN(C2CCCCC2)C2CCCCC2)c(O)cc1O
inactive: [11] 90 % of control | [12] 91 % of control | [13] 96 % of control

C/C(=N\OCc1cc2c(cc1Cl)OCO2)C(=O)O
inactive: dose: 100.0 mg/kg/injection, schedule: Q04DX003 (ip), vehicle: saline with Tween-80 100 % of control | dose: 200.0 mg/kg/injection, schedule: Q04DX003 (ip), vehicle: saline with Tween-80 99 % of control | dose: 400.0 mg/kg/injection, schedule: Q04DX003 (ip), vehicle: saline with Tween-80 91 % of control

Clc1ccc(OCc2sc3ccc(Br)cc3c2CN2CCc3ccccc3C2)cc1
inactive: dose: 75.0 mg/kg/injection, schedule: Q01DX009 (ip), vehicle: Klucel (hydroxypropylcellulose) (HPC) 101 % of control | [2] 94 % of control | dose: 150.0 mg/kg/injection, schedule: Q01DX009 (ip), vehicle: Klucel (hydroxypropylcellulose) (HPC) 94 % of control | [4] 98 % of control | dose: 300.0 mg/kg/injection, schedule: Q01DX009 (ip), vehicle: Klucel (hydroxypropylcellulose) (HPC) 97 % of control | [6] 94 % of control

CN(C)c1ccc(SSc2ccc(N(C)C)cc2)cc1
inactive: [11] 104 % of control | [15] 98 % of control | [12] 93 % of control | dose: 200.0 mg/kg/injection, schedule: Q04DX002 (ip), vehicle: Klucel (hydroxypropylcellulose) (HPC) 102 % of control | [13] 98 % of control | dose: 400.0 mg/kg/injection, schedule: Q04DX002 (ip), vehicle: Klucel (hydroxypropylcellulose) (HPC) 91 % of control
